Source: ChEMBL document CHEMBL4680338, “Sinomenine inhibits hypoxia induced breast cancer side population cells metastasis by PI3K/Akt/mTOR pathway” (Bioorg Med Chem, 2021)
Active and inactive are the calls of the source. No cut-off for these calls is given here.

Tests used:
[1] = tested on: MDA-MB-231; assay: Cytotoxicity against human MDA-MB-231 cells assessed as reduction in cell viability at 1 to 4 mM measured after 24 hrs under normoxia condition by CCK-8 assay; type: functional, cell-based; details: dose 1-4 mM
[2] = tested on: MCF7; assay: Cytotoxicity against human MCF7 cells assessed as reduction in cell viability at 1 to 4 mM measured after 24 hrs under normoxia condition by CCK-8 assay; type: functional, cell-based; details: dose 1-4 mM
[3] = tested on: MDA-MB-231; assay: Cytotoxicity against human MDA-MB-231 cells assessed as reduction in cell viability at 0.25 to 1 mM measured after 24 hrs under hypoxia condition by CCK-8 assay; type: functional, cell-based; details: dose 0.25-1 mM
[4] = tested on: MCF7; assay: Cytotoxicity against human MCF7 cells assessed as reduction in cell viability at 0.25 to 1 mM measured after 24 hrs under hypoxia condition by CCK-8 assay; type: functional, cell-based; details: dose 0.25-1 mM
[5] = tested on: MDA-MB-231; assay: Cytotoxicity against human MDA-MB-231 side population cells assessed as reduction in cell viability at 0.25 to 1 mM measured after 24 hrs under hypoxia condition by CCK-8 assay; type: functional, cell-based; details: dose 0.25-1 mM
[6] = tested on: MDA-MB-231; assay: Cytotoxicity against human MDA-MB-231 side population cells assessed as reduction in cell viability at 0.25 to 1 mM measured after 24 hrs by CCK-8 assay; type: functional, cell-based; details: dose 0.25-1 mM
[7] = tested on: MCF7; assay: Cytotoxicity against human MCF7 side population cells assessed as reduction in cell viability at 0.25 to 1 mM measured after 24 hrs under hypoxia condition by CCK-8 assay; type: functional, cell-based; details: dose 0.25-1 mM
[8] = tested on: MCF7; assay: Cytotoxicity against human MCF7 side population cells assessed as reduction in cell viability at 0.25 to 1 mM measured after 24 hrs by CCK-8 assay; type: functional, cell-based; details: dose 0.25-1 mM
[9] = tested on: MDA-MB-231; assay: Cytotoxicity against human MDA-MB-231 side population cells assessed as reduction in cell viability at 2 to 4 mM measured after 24 hrs under hypoxia condition by CCK-8 assay; type: functional, cell-based; details: dose 2-4 mM
[10] = tested on: MCF7; assay: Cytotoxicity against human MCF7 side population cells assessed as reduction in cell viability at 2 to 4 mM measured after 24 hrs under hypoxia condition by CCK-8 assay; type: functional, cell-based; details: dose 2-4 mM
[11] = tested on: MDA-MB-231; assay: Cytotoxicity against human MDA-MB-231 side population cells assessed as reduction in cell viability at 2 to 4 mM measured after 24 hrs under normoxia condition by CCK-8 assay; type: functional, cell-based; details: dose 2-4 mM
[12] = tested on: MCF7; assay: Cytotoxicity against human MCF7 side population cells assessed as reduction in cell viability at 2 to 4 mM measured after 24 hrs under normoxia condition by CCK-8 assay; type: functional, cell-based; details: dose 2-4 mM
[13] = tested on: MDA-MB-231; assay: Decrease in hypoxia-induced cell invasion in human MDA-MB-231 side population cells at 0.25 to 1 mM measured after measured after 24 hrs by crystal violet staining based transwell assay; type: functional; details: dose 0.25-1 mM
[14] = tested on: MCF7; assay: Decrease in hypoxia-induced cell invasion in human MCF7 side population cells at 0.25 to 1 mM measured after measured after 24 hrs by crystal violet staining based transwell assay; type: functional; details: dose 0.25-1 mM
[15] = tested on: MDA-MB-231; assay: Inhibition of hypoxia-induced cell invasion in human MDA-MB-231 cells at 0.25 to 1 mM measured after measured after 24 hrs by crystal violet staining based transwell assay; type: functional; details: dose 0.25-1 mM
[16] = tested on: MCF7; assay: Inhibition of hypoxia-induced cell invasion in human MCF7 cells at 0.25 to 1 mM measured after measured after 24 hrs by crystal violet staining based transwell assay; type: functional; details: dose 0.25-1 mM
[17] = tested on: MDA-MB-231; assay: Suppression of hypoxia-induced upregulation of N-cadherin expression in human MDA-MB-231 side population cells at 0.25 to 1 mM by Western blot analysis; type: functional; details: dose 0.25-1 mM
[18] = tested on: MDA-MB-231; assay: Suppression of hypoxia-induced upregulation of vimentin expression in human MDA-MB-231 side population cells at 0.25 to 1 mM by Western blot analysis; type: functional; details: dose 0.25-1 mM
[19] = tested on: MDA-MB-231; assay: Suppression of hypoxia-induced upregulation of MMP2 expression in human MDA-MB-231 side population cells at 0.25 to 1 mM by Western blot analysis; type: functional; details: dose 0.25-1 mM
[20] = tested on: MDA-MB-231; assay: Suppression of hypoxia-induced upregulation of MMP9 expression in human MDA-MB-231 side population cells at 0.25 to 1 mM by Western blot analysis; type: functional; details: dose 0.25-1 mM
[21] = tested on: MDA-MB-231; assay: Reversal of hypoxia-induced downregulation of E-cadherin expression in human MDA-MB-231 side population cells at 0.25 to 1 mM by Western blot analysis; type: functional; details: dose 0.25-1 mM
[22] = tested on: MDA-MB-231; assay: Suppression of hypoxia-induced upregulation of N-cadherin expression in human MDA-MB-231 cells at 0.25 to 1 mM by Western blot analysis; type: functional, cell-based; details: dose 0.25-1 mM
[23] = tested on: MDA-MB-231; assay: Suppression of hypoxia-induced upregulation of vimentin expression in human MDA-MB-231 cells at 0.25 to 1 mM by Western blot analysis; type: functional, cell-based; details: dose 0.25-1 mM
[24] = tested on: MDA-MB-231; assay: Suppression of hypoxia-induced upregulation of MMP2 expression in human MDA-MB-231 cells at 0.25 to 1 mM by Western blot analysis; type: functional, cell-based; details: dose 0.25-1 mM
[25] = tested on: MDA-MB-231; assay: Suppression of hypoxia-induced upregulation of MMP9 expression in human MDA-MB-231 cells at 0.25 to 1 mM by Western blot analysis; type: functional, cell-based; details: dose 0.25-1 mM
[26] = tested on: MDA-MB-231; assay: Reversal of hypoxia-induced downregulation of E-cadherin expression in human MDA-MB-231 cells at 0.25 to 1 mM by Western blot analysis; type: functional, cell-based; details: dose 0.25-1 mM
[27] = tested on: MDA-MB-231; assay: Inhibition of hypoxia-induced activation of PI3K/Akt/mTOR signaling in human MDA-MB-231 side population cells assessed as decrease in phosphorylated PI3K level at 0.25 to 1 mM measured after 24 hrs by Western blot analysis; details: dose 0.25-1 mM
[28] = tested on: MDA-MB-231; assay: Inhibition of hypoxia-induced activation of PI3K/Akt/mTOR signaling in human MDA-MB-231 side population cells assessed as decrease in phosphorylated Akt level at 0.25 to 1 mM measured after 24 hrs by Western blot analysis; details: dose 0.25-1 mM
[29] = tested on: MDA-MB-231; assay: Inhibition of hypoxia-induced activation of PI3K/Akt/mTOR signaling in human MDA-MB-231 side population cells assessed as decrease in phosphorylated mTOR level at 0.25 to 1 mM measured after 24 hrs by Western blot analysis; details: dose 0.25-1 mM
[30] = tested on: MDA-MB-231; assay: Inhibition of hypoxia-induced activation of PI3K/Akt/mTOR signaling in human MDA-MB-231 side population cells at 1 nM measured after 24 hrs in presence of IGF-1 by Western blot analysis
[31] = tested on: MDA-MB-231; assay: Suppression of hypoxia-induced upregulation of MMP2 expression in human MDA-MB-231 cells at 1 nM measured after 24 hrs in presence of IGF-1 by Western blot analysis; type: functional, cell-based
[32] = tested on: MDA-MB-231; assay: Suppression of hypoxia-induced upregulation of MMP9 expression in human MDA-MB-231 cells at 1 nM measured after 24 hrs in presence of IGF-1 by Western blot analysis; type: functional, cell-based

## COC1=C[C@@H]2[C@@H]3Cc4ccc(OC)c(O)c4[C@]2(CCN3C)CC1=O
[1]
  Activity: Active
[2]
  Activity: Active
[3]
  Activity: inactive
[4]
  Activity: inactive
[5]
  Activity: inactive
[6]
  Activity: inactive
[7]
  Activity: inactive
[8]
  Activity: inactive
[9]
  Activity: Active
[10]
  Activity: Active
[11]
  Activity: Active
[12]
  Activity: Active
[13]
  Activity: Active
[14]
  Activity: Active
[15]
  inhibition: Active
[16]
  inhibition: Active
[17]
  Activity: Active
[18]
  Activity: Active
[19]
  Activity: Active
[20]
  Activity: Active
[21]
  Activity: Active
[22]
  Activity: Active
[23]
  Activity: Active
[24]
  Activity: Active
[25]
  Activity: Active
[26]
  Activity: Active
[27]
  inhibition: Active
[28]
  inhibition: Active
[29]
  inhibition: Active
[30]
  inhibition: inactive
[31]
  Activity: inactive
[32]
  Activity: inactive
